Patent publication US20250230193A1, “CYCLIC COMPOUND HAVING SELECTIVE KRAS INHIBITORY EFFECT ON HRAS AND NRAS” (CHUGAI SEIYAKU KABUSHIKI KAISHA, priority 2022, published 2025)

How the values were obtained:
[1] = molecular target: GDP-bound NRAS wild-type protein (Homo sapiens, UniProt P01111); assay: Binding to NRAS by surface plasmon resonance (SPR), Single Cycle Kinetics; conditions: SPR, GDP-bound NRAS wild-type vs GDP-bound KRAS wild-type
[2] = molecular target: GDP-bound HRAS wild-type protein (Homo sapiens, UniProt P01112); assay: Binding to HRAS by surface plasmon resonance (SPR), Single Cycle Kinetics; conditions: SPR, GDP-bound HRAS wild-type vs GDP-bound KRAS wild-type
Sequence of GDP-bound HRAS wild-type protein (P01112 whole entry): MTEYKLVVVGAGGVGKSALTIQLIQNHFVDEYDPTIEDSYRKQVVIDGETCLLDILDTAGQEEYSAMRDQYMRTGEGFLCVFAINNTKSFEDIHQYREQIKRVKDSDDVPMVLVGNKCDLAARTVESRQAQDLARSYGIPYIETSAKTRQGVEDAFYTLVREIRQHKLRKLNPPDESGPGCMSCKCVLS

Sequence of GDP-bound NRAS wild-type protein (P01111 whole entry): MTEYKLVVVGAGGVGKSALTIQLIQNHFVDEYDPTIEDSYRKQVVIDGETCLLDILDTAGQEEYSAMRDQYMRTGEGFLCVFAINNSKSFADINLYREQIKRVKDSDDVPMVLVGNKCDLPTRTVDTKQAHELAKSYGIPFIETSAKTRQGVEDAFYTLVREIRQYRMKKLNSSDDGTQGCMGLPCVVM

In the case of `CCO[C@@H]1C[C@H]2C(=O)NC3(CC(C)(C)C3)C(=O)N(C)[C@@H](C(CC)CC)C(=O)N(C)[C@H](C(=O)N(C)C)CC(=O)N(C)[C@@H](C(C)C)C(=O)N[C@@H]([C@@H](C)CC)C(=O)N(C)CC(=O)N(C)[C@H]3C/C=C\CCN(C3=O)[C@@H](Cc3ccc(C(F)(F)F)cc3)C(=O)N(C)CC(=O)N[C@@H](CCc3ccc(Cl)c(Cl)c3)C(=O)N2C1` [PP2181], the “NRAS/KRAS (ratio of KD value with respect to NRAS to KD value with respect to KRAS)” value [1] is reported as “AA (a compound having 20 or more is denoted as AA)” and the “HRAS/KRAS (ratio of KD value with respect to HRAS to KD value with respect to KRAS)” value [2] is reported as “A (a compound having 10 or more and less than 20 is denoted as A)”.
With `CCO[C@@H]1C[C@H]2C(=O)NC3(CC(C)(C)C3)C(=O)N(C)[C@@H](C(CC)CC)C(=O)N(C)[C@H](C(=O)N(C)C)CC(=O)N(C)[C@@H](CC3CC3)C(=O)N[C@@H]([C@@H](C)CC)C(=O)N(C)CC(=O)N(C)[C@H]3C/C=C\CCN(C3=O)[C@@H](Cc3ccc(C)cc3)C(=O)N(C)CC(=O)N[C@@H](CCc3ccc(Cl)c(Cl)c3)C(=O)N2C1` [PP2182] the “NRAS/KRAS (ratio of KD value with respect to NRAS to KD value with respect to KRAS)” value [1] was “AA (a compound having 20 or more is denoted as AA)” and the “HRAS/KRAS (ratio of KD value with respect to HRAS to KD value with respect to KRAS)” value [2] was “A (a compound having 10 or more and less than 20 is denoted as A)”.
For `CCC[C@H]1C(=O)N[C@@H]([C@@H](C)CC)C(=O)N(C)CC(=O)N(C)[C@H]2C/C=C\CCN(C2=O)[C@@H](Cc2ccc(C)cc2)C(=O)N(C)CC(=O)N[C@@H](CCc2ccc(Cl)c(Cl)c2)C(=O)N2C[C@H](OCC)C[C@H]2C(=O)NC2(CC(C)(C)C2)C(=O)N(C)[C@@H](C(CC)CC)C(=O)N(C)[C@H](C(=O)N(C)C)CC(=O)N1C` [PP2184], the “NRAS/KRAS (ratio of KD value with respect to NRAS to KD value with respect to KRAS)” value [1] was “AA (a compound having 20 or more is denoted as AA)” and the “HRAS/KRAS (ratio of KD value with respect to HRAS to KD value with respect to KRAS)” value [2] was “A (a compound having 10 or more and less than 20 is denoted as A)”.
`CCO[C@@H]1C[C@H]2C(=O)NC3(CC(C)(C)C3)C(=O)N(C)[C@@H](C(CC)CC)C(=O)N(C)[C@H](C(=O)N(C)C)CC(=O)N(C)[C@@H](CC(C)C)C(=O)N[C@@H]([C@@H](C)CC)C(=O)N(C)CC(=O)N(C)[C@H]3C/C=C\CCN(C3=O)[C@@H](Cc3ccc(C)cc3)C(=O)N(C)CC(=O)N[C@@H](CCc3ccc(Cl)c(Cl)c3)C(=O)N2C1` [PP2185] was tested, and the “NRAS/KRAS (ratio of KD value with respect to NRAS to KD value with respect to KRAS)” value [1] was “AA (a compound having 20 or more is denoted as AA)” and the “HRAS/KRAS (ratio of KD value with respect to HRAS to KD value with respect to KRAS)” value [2] was “A (a compound having 10 or more and less than 20 is denoted as A)”.
For `CCO[C@@H]1C[C@H]2C(=O)NC3(CC(C)(C)C3)C(=O)N(C)[C@@H](C(CC)CC)C(=O)N(C)[C@H](C(=O)N(C)C)CC(=O)N(C)[C@@H](C)C(=O)N[C@@H]([C@@H](C)CC)C(=O)N(C)CC(=O)N(C)[C@H]3C/C=C\CCN(C3=O)[C@@H](Cc3ccc(C)cc3)C(=O)N(C)CC(=O)N[C@@H](CCc3ccc(Cl)c(Cl)c3)C(=O)N2C1` [PP2186], the “NRAS/KRAS (ratio of KD value with respect to NRAS to KD value with respect to KRAS)” value [1] was “AA (a compound having 20 or more is denoted as AA)” and the “HRAS/KRAS (ratio of KD value with respect to HRAS to KD value with respect to KRAS)” value [2] was “A (a compound having 10 or more and less than 20 is denoted as A)”.
With `CCO[C@@H]1C[C@H]2C(=O)NC3(CC(C)(C)C3)C(=O)N(C)[C@@H](C(CC)CC)C(=O)N(C)[C@H](C(=O)N3CCCC3)CC(=O)N(C)[C@@H](C)C(=O)N[C@@H]([C@@H](C)CC)C(=O)N(C)CC(=O)N(C)[C@H]3C/C=C\CCN(C3=O)[C@@H](Cc3ccc(C)cc3)C(=O)N(C)CC(=O)N[C@@H](CCc3ccc(Cl)c(Cl)c3)C(=O)N2C1` [PP2187] the “NRAS/KRAS (ratio of KD value with respect to NRAS to KD value with respect to KRAS)” value [1] was “AA (a compound having 20 or more is denoted as AA)” and the “HRAS/KRAS (ratio of KD value with respect to HRAS to KD value with respect to KRAS)” value [2] was “A (a compound having 10 or more and less than 20 is denoted as A)”.
